Assay results as given in patent US20100184703A1, “USE OF PEPTIDE DERIVATIVES FOR TREATING PATHOLOGIES RESULTING FROM ISCHEMIA” (CHIESI FARMACEUTICI S.p.A., priority 2007, published 2010).
Entries after “also recorded” stand apart in the source; their conditions may differ. Peptide text beside a SMILES is read from it. * marks the point of attachment. X1 = COC(=O)CC(N*)C(=O)COc1c(F)cccc1F; Quinaldoyl = O=C(c1ccc2ccccc2n1)*

Experiments:
[1] = biological target: T1, caspase-3 (Rattus norvegicus, UniProt P55213); assay: Dosage of caspase-3 activity in myocardial tissue, reperfusion ischemia (IR) model; type: in vivo; conditions: administered 15 min before the reperfusion, VGZI, VD, Apex and VGZNI
T1 construct: from tissue; host or cells: rat myocardium (left ventricle, right ventricle, septum, apex) extracts
T1 sequence (P55213 29-175 limits assumed): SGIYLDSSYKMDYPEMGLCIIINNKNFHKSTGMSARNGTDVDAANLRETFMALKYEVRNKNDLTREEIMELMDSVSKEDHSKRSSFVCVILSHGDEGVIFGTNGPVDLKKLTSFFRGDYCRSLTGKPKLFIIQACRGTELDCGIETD
T1 sequence (P55213 176-277 limits assumed): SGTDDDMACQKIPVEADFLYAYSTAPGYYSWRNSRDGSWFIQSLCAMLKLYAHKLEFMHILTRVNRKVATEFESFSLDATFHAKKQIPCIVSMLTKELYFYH
Protocol: The analyses were performed on 2 myocardial ischemia models: a chronic ischemia model and an acute ischemia model, followed by myocardial reperfusion after 30 min of occlusion.
Said models were realized with Wistar male rats (180-220 g). The coronary artery was ligatured according to Pfeffer et al protocol.
Briefly, the rats were anaesthetized by intraperitoneal administration of a mixture of Ketamine (150 mg/kg) and Xylazine (15 mg/kg), then intubated and mechanically ventilated. The animals were submitted to a left and median thoracotomy. An occlusion of the coronary artery was done with a silk wire (size: 7.0) at the more proximal point and below the auricle.
In the case of reperfusion ischemia model (IR model), the silk wire was untied after 30 min of occlusion. The artery was then cleared and the myocardial territory reperfused. The control animals (sham operated) were submitted to the same surgery protocol as the above animals, but the silk wire was passed under the coronary without making any ligature.
The animals were sacrificed by a pentobarbital lethal injection. The heart was excised and perfused about 5 min by Langerdorf reverse way using a calcium-free washing solution (in mM: NaCl 117 mM, KCl 5.7, NaHCO3 4.4, KH2PO4 1.5, MgCl2 1.7, HEPES 21, glucose 11, taurine 20, pH 7.2 adjusted with NaOH). The heart was then placed into a dissection tank and the different myocardial territories were taken (i.e. right ventricle (VD), septum, Apex, left ventricle (selectively in infarcted area (VGZI) and non-infarcted area (VGZNI)). Each fragment of tissue was rapidly frozen in liquid nitrogen and kept at −80° C.
Each tissue was then thawed and about 1-2 mm^3 was taken. […]
The supernatant was taken and divided into 2 tubes for of each sample. The tubes were placed at −80° C. before performing the spectrophotometric proteic dosage (BCA: cupper (II) sulphate+solution A of bicinchronic acid, DO measured at 550 nm) in transparent, with flat bottom, 96-well plates. […]

[2] = test system: single ventricular cardiomyocytes; assay: Ca2+ handling and cell shortening of cardiomyocytes isolated after ischemia-reperfusion; type: in vivo, rat; conditions: 30 min ischemia, 10 days reperfusion; for sarcoplasmic reticulum Ca2+ load: 10 mM caffeine, versus sham-operated; for amplitude of cytosolic Ca2+ transients: 0.5 Hz field stimulation
Protocol: Experiments were carried out on single ventricular cardiomyocytes isolated from rats after 30 minutes of myocardial ischemia followed by 10 days of reperfusion. Cardiomyocytes were loaded with a fluorescent calcium indicator (Fluo4) in order to measure calcium transient evoked by 0.5 Hz field stimulation. Cell shortening was also simultaneously recorded as an index of cardiomyocyte contraction. […] These deleterious effects classically reported by others in similar experimental conditions Under TRP601 or QV-D-oph treatment Ca^2+ transients amplitude was unchanged B. Similarly, Ca^2+ release kinetics estimated by the amplitude/time to peak (TT) ratio was slowed down in cardiomyocytes of untreated animals, whereas under TRP601 or QV-D-oph treatment Ca^2+ release was unaffected. C. Altered Ca^2+ transient kinetics in vehicle-treated animal are accompanied by a decrease in sarcoplasmic reticulum Ca^2+ load (estimated by application of 10 mM caffeine). […] (*p<0.05 compared to sham-operated animals, n≧5 animals).

[3] = test system: ANF, BNP, fibronectin, β-MHC, TNFR1, TNFR2, TNFα, caspase-2 mRNA; assay: Quantitative RT-PCR of heart failure, fibrosis, hypertrophy and TNFα signaling markers after ischemia/reperfusion; type: in vivo, rat; conditions: IR model; for mRNA expression level of TNFα / mRNA expression level of TNFα receptor 1 (TNFR1) / mRNA expression level of TNFα receptor 2 (TNFR2) / mRNA expression level of caspase-2: increase in vehicle-injected animals; for mRNA expression level of β-Myosin Heavy Chain (β-MHC): marker for hypertrophy development; for mRNA expression level of fibronectin: marker of fibrosis development; for mRNA expression level of Atrial Natriuretic Factor (ANF) / mRNA expression level of brain natriuretic peptide (BNP): marker of heart failure
Protocol: In a second series of experiments, quantitative RT-PCR was performed to evaluate the level of expression of 2 markers of heart failure, Atrial Natriuretic Factor (ANF) and Brain Natriuretic Factor (BNP) as well as a marker of myocardial fibrosis, fibronectine, and myocardial hypertrophy, βMHC. […] B. mRNA expression levels of fibronectin a marker of fibrosis development, and β-Myosin Heavy Chain (β-MHC) a marker for hypertrophy development

SMILES	caspase-3 activity [1]	caspase-3 activity ([1]; listed as QVDOPH)	Ca2+ release kinetics (amplitude/time to peak ratio) [2]	cell shortening [2]	sarcoplasmic reticulum Ca2+ load [2]	amplitude of cytosolic Ca2+ transients [2]	mRNA expression level of TNFα [3]	mRNA expression level of TNFα receptor 1 (TNFR1) [3]	mRNA expression level of TNFα receptor 2 (TNFR2) [3]	mRNA expression level of caspase-2 [3]	mRNA expression level of β-Myosin Heavy Chain (β-MHC) [3]	mRNA expression level of fibronectin [3]	mRNA expression level of Atrial Natriuretic Factor (ANF) [3]	mRNA expression level of brain natriuretic peptide (BNP) [3]
CC(C)[C@H](NC(=O)c1ccc2ccccc2n1)C(=O)N[C@@H](CC(=O)O)C(=O)COc1c(F)cccc1F [Q-VD-OPH]	inhibits the activity of both caspases	normalization of the activity	unaffected	avoided cell shortening decreasing	not significantly different	unchanged	prevented	prevented	prevented	prevented	blocked	blocked	comparable to sham-operated animals	comparable to sham-operated animals
COC(=O)CC(NC(=O)[C@H](C)NC(=O)[C@@H](NC(=O)[C@H](CC(=O)OC)NC(=O)[C@@H](NC(=O)c1ccc2ccccc2n1)C(C)C)C(C)C)C(=O)COc1c(F)cccc1F (stereo partly drawn) [D1, (3S,6S,9S,12S)-methyl 15-(2-(2,6-difluorophenoxy)acetyl)-3,9-diisopropyl-6-(2-methoxy-2-oxoethyl)-12-methyl-1,4,7,10,13-pentaoxo-1-(quinolin-2-yl)-2,5,8,11,14-pentaazaheptadecan-17-oate] (Quinaldoyl-VD(OMe)VA-X1)	normalization of the activity; also recorded: prevents the further activation		unaffected	avoided cell shortening decreasing	not significantly different	unchanged	prevented	prevented	prevented	prevented	blocked	blocked	comparable to sham-operated animals	comparable to sham-operated animals
